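GI50 = concentration required for 50% inhibition of growth. The concentration for full growth arrest is given as TGI.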
Assays:
Assay in all cases: inhibition of tumour cell growth, NCI panel, 384-well format
[1] = system: NCI-H226 lung
[2] = system: NCI-H23 lung
[3] = system: NCI-H460 NSCLC
[4] = system: NCI-H522 lung
[5] = system: NCI/ADR-RES ovarian
[6] = system: OVCAR-3 ovarian
[7] = system: OVCAR-5 ovarian
[8] = system: OVCAR-8 ovarian
[9] = system: PC-3 prostate
[10] = system: SF-268 CNS
[11] = system: SF-295 CNS
[12] = system: SF-539 CNS
[13] = system: SK-MEL-2 melanoma
[14] = system: SK-MEL-28 melanoma
[15] = system: SK-MEL-5 melanoma
[16] = system: SK-OV-3 ovarian
[17] = system: SN12C renal
[18] = system: SNB-19 CNS
[19] = system: SNB-75 CNS
[20] = system: SR leukemia
[21] = system: SW-620 colon
[22] = system: T-47D breast
[23] = system: TK-10 renal
[24] = system: U251 glioblastoma

N#Cc1cnc(Nc2cc(NC[C@H]3CNCCO3)c(C(F)(F)F)cn2)cn1
TGI [1]: 54.1 µM | GI50 [2]: 0.508 µM | TGI [2]: 12.3 µM | GI50 [3]: 8.14 µM | TGI [3]: 21 µM | GI50 [4]: 13.6 µM | TGI [4]: 26.9 µM | GI50 [5]: 0.963 µM | TGI [5]: 2.91 µM | GI50 [6]: 9.42 µM | TGI [6]: 25.4 µM | GI50 [7]: 17.1 µM | TGI [7]: 43.9 µM | GI50 [8]: 1.66 µM | TGI [8]: 22.2 µM | GI50 [9]: 16.4 µM | TGI [9]: 40.3 µM | GI50 [10]: 14.4 µM | TGI [10]: 30.1 µM | GI50 [11]: 0.946 µM | TGI [11]: 4.12 µM | GI50 [12]: 0.38 µM | TGI [12]: 1.18 µM | GI50 [13]: 10.8 µM | TGI [13]: 22.7 µM | GI50 [14]: 18.1 µM | TGI [14]: 35.6 µM | GI50 [15]: 2.97 µM | TGI [15]: 16 µM | GI50 [16]: 2.33 µM | TGI [16]: 11 µM | GI50 [17]: 18.3 µM | TGI [17]: 38.5 µM | GI50 [18]: 9.81 µM | TGI [18]: 62.7 µM | GI50 [19]: 14.7 µM | TGI [19]: 27.9 µM | GI50 [20]: 0.0572 µM | TGI [20]: 0.186 µM | GI50 [21]: 16.8 µM | TGI [21]: 39.4 µM | GI50 [22]: 25.4 µM | TGI [22]: 51.3 µM | GI50 [23]: 1.14 µM | TGI [23]: 10.2 µM | GI50 [24]: 17.4 µM | TGI [24]: 39.7 µM
